The source of these data is US12150925B2, “Buthionine sulfoximine and a metallodrug for the treatment of cancer, HIV or a rheumatic disease” (Istituto Superiore di Sanità, priority 2017, dated 2024).

In series [1] the test system is cellular GSH. As to conditions: 1.5 g/m^2 BSO at 12 hour intervals for six doses, alone or with 15 mg/m^2 melphalan; cited from earlier work.
For series [2], the system named is MKN-28 cells. As to conditions: BSO 5, 10 and 25 mM; cisplatin 0.1-3.0 μg/ml; cited from earlier work.
For series [3], the system named is MKN-45 cells. As to conditions: BSO 5, 10 and 25 mM; cisplatin 0.01-1 μg/ml; cited from earlier work.
The conditions of series [4]: 5 mmol/kg (equivalent to 111.5 mg/kg) BSO 12 hours before the chemotherapeutic agent; cited from earlier work.
The subject of series [5] is Jurkat T-cells. Description: Viability of Jurkat T-cells (MTT assay, FIG. 4). In kind it is cell-based. As for the experimental part: FIG. 4 is a graph showing the viability of Jurkat T-cells treated with different concentrations of cisplatin, auranofin and/or buthionine sulfoximine (BSO). Viability was measured 48 hours after treatment with the drugs at the indicated concentrations with the MTT assay. Absorbance values were normalized over untreated controls and expressed as percentage. Concentrations are expressed in μM. Data are expressed as mean±SEM and were. Asterisks show the significant differences [*q<0.05; *q<0.01; q is the P value corrected for multiple comparisons by controlling the False Discovery Rate (threshold for significance=q=0.05)]. NS: non-significant. The synergistic index (SI) is expressed where significant differences exist in comparison with the single drug treatments.
(§1) In-vitro activity on activated CD4^+ T-cells and leukemia/lymphoma Methods. Resting CD4^+ T-cells, cultured T-cell leukemic Jurkat cells and Sup-T1 cells were left untreated or incubated for 24-72 hours with various concentrations of auranofin and/or buthionine sulfoximine (BSO), or chloroquine (only CD4^+ T-cells) or cisplatin (only Jurkat and Supt-T1 cells) CD4^+ T-cells were then activated by adding phytohemagglutinin (2 μg/mL). Alternatively, CD4^+ T-cells were first activated with anti-CD3/anti-CD28 beads and, after 72 hours, were left untreated or were incubated with auranofin and/or buthionine sulfoximine (BSO), or chloroquine. Cell viability was determined 24-72 hours post-activation with an MTT assay (CellTiter 96@ Non-Radioactive Cell Proliferation Assay) or MTS assay (CellTiter 960 AQueous One Solution Cell Proliferation Assay System; Promega). For the assay, 300×10^5 cells were re-suspended in 100 μL of medium and transferred to a 96-well plate. Cells were then incubated with 20 μL of a substrate solution (One Solution Reagent) for 3-4 hours in a CO2 (5%) incubator at 37° C. For the MTT assay, 100 μL of a Solubilization/Stop Solution were used to stop the reaction. Medium-only containing wells were included to serve as a blank control. Absorbance levels were recorded at 490 nm (MTS) or 570 nm (MTT) and, after subtraction of the blank, absorbance values were expressed as percentage of controls.
(§2) Results. The results from the new dosage combinations were compared to the untreated cells as well as the cells treated with single drugs or “classical” dosages, in a multiple comparison analysis. Thus, the statistical significances shown are also significant compared to the untreated cells.
(In general: Tetrazolium dyes change colour on reduction, which living cells bring about.)

Series [6] relates to Supt-1 T-cells. Description: Viability of Supt-1 T-cells (MTS assay, FIGS. 2 and 6). In kind it is cell-based. As to the method: FIG. 2 is a graph showing the viability of Supt-1 T-cells treated with different concentrations of auranofin (AU) or buthionine sulfoximine (BSO). Viability was measured 72 hours after treatment with the drugs at the indicated concentrations with the MTS assay. Absorbance values were normalized over untreated controls and expressed as percentage. BSO=buthionine sulfoximine. Concentrations are expressed in μM. Data are expressed as mean t SEM and were analysed by the Turkey posttest following One Way ANOVA. *P<0.05; **P<0.01 ***P<0.001; ****P<0.0001. NS: non-significant. The synergistic index (SI) is expressed where significant differences exist in comparison with the single drug treatments.
FIG. 6 is a graph showing the viability of Supt-1 T-cells treated with different concentrations of cisplatin or buthionine sulfoximine (BSO). Viability was measured 72 hours after treatment with the drugs at the indicated concentrations with the MTS assay. Absorbance values were normalized over untreated controls and expressed as percentage. BSO=buthionine sulfoximine. Concentrations are expressed in μM; Asterisks show the significant differences [*q<0.05; **q<0.01; q is the P value corrected for multiple comparisons by controlling the False Discovery Rate (threshold for significance=q=0.05)]. NS: non-significant. The synergistic index (SI) is expressed where significant differences exist in comparison with the single drug treatments.
as §1, §2

For series [7] the following is noted: rats; cited from earlier work.
[8] abbreviates: submicromolar BSO with cisplatin 10 μM.

“Also recorded” adds a separate entry of the source.

With `CCCCS(=N)(=O)CCC(N)C(=O)O` (stereo not shown) [BSO, buthionine sulfoximine], the “cellular GSH” value in series [1] was “Marked depletion”. The “effect of BSO pre-treatment on antitumor activity of cisplatin” value in series [2] and in series [3] was “increased the antitumor activity of cisplatin” in each case. The “effect on anti-cancer effects of cyclophosphamide, cisplatin or bleomycin” value in series [4] is listed as “increased the anti-cancer effects”. Further, the “synergism of BSO and cisplatin” value in series [5] (BSO (submicromolar) with cisplatin (10 μM), 48 h (FIG. 4)) is listed as “Significant synergism; also recorded: true synergism”; in series [6] (submicromolar BSO with cisplatin 10 μM (FIG. 6)), “true synergism”. For the same compound, in series [5] (BSO with auranofin and cisplatin (FIGS. 4 and 5)), the “effect of auranofin and low concentrations of BSO on the anti-neoplastic effect of cisplatin” value is reported as “increase the anti-neoplastic effect of cisplatin”. Besides, the “effect of BSO on susceptibility to cisplatin” value in series [5] (FIG. 4) and in series [6] (FIG. 6) was “chemosensitizing effect” throughout. Besides, the “inhibition of cellular proliferation compared with BSO 250 μM” value in series [5] (setting [8]) and in series [6] (setting [8]) was “no statistical difference” throughout. Also, the “difference between BSO only and the same BSO concentration in the presence of auranofin” value in series [6] (BSO 250 μM) is reported as “no significant difference”. For the same compound, the “effect on cisplatin-induced cell death” value in series [6] (BSO 250 μM with cisplatin) is recorded as “increased cisplatin-induced cell death”. Moreover, the synergistic index in series [6] (BSO 250 μM with cisplatin (FIG. 6), effect antagonistic) was above 1.1. Further, the “effect of BSO only” value in series [6] (BSO 250 μM, no auranofin) is reported as “cytotoxic effect”. Also, the viability entry in series [6] (auranofin and BSO 250 μM) is reported as “low viability”. Also, in series [6] (submicromolar BSO with auranofin, e.g. auranofin 0.5+BSO 0.75 μM), the “difference between combined drug treatment and the single drugs alone” value is recorded as “extremely significant difference”. Further, the anticancer effect result in series [6] (submicromolar BSO with clinically-achievable auranofin concentrations (FIGS. 2 and 3)) is given as “direct anticancer effect”. For the same compound, the “effect on nephrotoxicity of cisplatin” value in series [7] is reported as “reduce the nephrotoxicity”.
